Patent US20250101061A1, “UPREGULATION OF FERRITIN HEAVY CHAIN 1 EXPRESSION” (HBC Immunology Inc., priority 2022, published 2025)
Several values for one entry are separate records, joined by “and”; a condition that tells them apart may be missing. Equal entries are not always repeated.

Tests used:
[1] = test system: Immortalized human astrocytes (P10251-IM); experiment: Protection of human astrocytes from hemin-induced injury (LDH release assay); assay type: cell-based; details: 24 hr pre-treatment: SPH 160 μM, oligopeptide 10 μM, collagen control 160 μM; then 30 μM hemin 6 hrs; scaled to 0.1% Triton X-100 lysis
Experimental: Immortalized human astrocytes (P10251-IM) were obtained from Innoprot, Spain and prepared under conditions recommended by the supplier. At 90% confluency, the P10251-IM cells were rinsed with 8 ml of DPBS and 2 ml of the T/E Solution (prepared as per Innoprot procedure), then added into an […] and gently rocked so that the P10251-IM cells would be completely covered. The flask was subsequently incubated at 37° C. for 2 minutes. Then 5 ml of fetal bovine serum (FBS) and the T/E solution from the flask were added into a 50 ml conical centrifuge tube. The flask was incubated for an additional 2 minutes, and the P10251-IM cells dislodged from the surface by gentle tapping. The P10251-IM cells were then transferred to the 50 ml conical centrifuge tube with 5 ml of TNS solution. The tube was centrifuged at 1000 rpm for 5 minutes. Then the P10251-IM cells were resuspended in the culture medium, counted, and plated in a poly-L-lysine-coated culture plate at 1×10^4 cell density. Cells were tested after they were incubated for 21 days in vitro.
Confluent P10251-IM cell cultures were washed and then pre-treated with medium alone, or medium supplemented with SPH (160 μM) or an oligopeptide (10 μM) for 24 hr at 37° C. Commercial collagen peptide (Vital Protein) at 160 μM concentration and sterile water were used as negative controls. The P10251-IM cells were subsequently treated with 30 μM hemin in serum-free medium consisting of MEM with 10 mM glucose (MEM10) for 6 hrs.
P10251-IM astrocyte cultures that were […] with 30 μM hemin sustained widespread cell injury. Cell viability was quantified using the lactate dehydrogenase (LDH) release assay as previously described (Chen and Regan, Curr Neurovasc Res, 2:189-196, 2005). Briefly, quantification of the protective effects of SPH and oligopeptides were assessed by determining the mean percentage LDH released, scaled to the complete lysis control culture which was treated with 0.1% Triton X-100 (considered to release 100% of culture LDH).

[2] = test system: FTH1; experiment: FTH1 gene expression in human skeletal muscle cells (HSkMC) by qRT-PCR; assay type: cell-based; details: for FTH1 Fold Change, Average / FTH1 Fold Change (individual runs): SPH 100 μM or synthetic oligopeptide 10 μM, about 12 hours; for FTH1 Fold Change (individual runs): triplicate runs; for FTH1 Fold Change at 0.625 μM / FTH1 Fold Change at 1.25 μM / FTH1 Fold Change at 2.5 μM / FTH1 Fold Change at 5 μM / FTH1 Fold Change at 10 μM: average of triplicate (SD ≤ 0.3)
Experimental: A cell line derived from human skeletal muscle was selected to assess the effect of SPH and oligopeptides on gene expression. HSkMC (PCS-950-010) obtained from ATCC (Manassas, VA) were propagated in Mesenchymal Stem Cell Basal Medium (ATCC) reduced serum medium supplemented with Primary Skeletal Cell Muscle Growth Kit (ATCC) that contains L-Glutamine (10 mM), Dexamethasone ([…]), rh epidermal growth factor (5 ng/ml), rh FGF-b (5 ng/ml), rh Insulin (25 μg/mL), and fetal bovine serum (4%), on 100 mm cell culture dishes. For this assay, the HSkMC cells were seeded in 24 well plates at a cell density of 1×10^4 cells/cm^2 and maintained at 37° C. in a humidified 5% CO2 atmosphere. […]
Total RNA was extracted using the UPzol reagent for the cell pellets, followed by a DNAse treatment (DNAse TURBO), using the manufacturer's protocols. Complementary DNA (cDNA) was synthesized with the High Capacity cDNA Reverse Transcription Kit (Applied Biosystems) using random hexamers. Gene expression levels were measured by qRT-PCR.
1 μl of cDNA corresponding to 50 ng of reverse transcribed RNA was amplified by Qpcr (QuantStudio™ 6 Flex Real-Time PCR System), using the TaqMan™ Universal PCR Master Mix (Catalog No. 4304437) and a TaqMan™ assay (Roche Molecular Systems, Inc., Pleasanton, CA).
FTH1 gene expression was estimated relative to expression of the housekeeping gene, beta-actin (ACTB), following the standard formula: […]
2-ΔCt. TaqMan™ probe IDs used were: (i) FTH1, Hs01694011_s1; and (ii) ACTB, Hs01060665_g1. All experiments were run in triplicate.

Row | Substance | % LDH Release (individual runs) [1] | % LDH Release, Average [1] [%] | FTH1 Fold Change, Average [2] [fold] | FTH1 Fold Change (individual runs) [2] | FTH1 Fold Change at 0.625 μM [2] [fold] | FTH1 Fold Change at 1.25 μM [2] [fold] | FTH1 Fold Change at 2.5 μM [2] [fold] | FTH1 Fold Change at 5 μM [2] [fold] | FTH1 Fold Change at 10 μM [2] [fold]
1 | Triton X-100 [0.1% Triton X-100, reference compound] | 100% (2×) and 99% | 100 | – | – | – | – | – | – | –
2 | LDEESGEP [FT-005] | – | – | 1.8 | 1.7 fold and 1.8 fold (2×) | – | – | – | – | –
3 | KPREESGE [FT-004] | – | – | 2.1 | 2.1 fold and 2.2 fold and 1.9 fold | 1.1 | 1.1 | 1.1 | 1.3 | 2.1
4 | REESGE [FT-001] | – | – | 1.7 | 1.6 fold and 1.8 fold (2×) | – | – | – | – | –
5 | REESGEP [FT-002] | – | – | 2.2 | 2.1 fold and 2.0 fold and 2.5 fold | 1.0 | 1.0 | 1.1 | 1.4 | 2.2
6 | KEEDEESGE [FT-003] | – | – | 1.1 | 1.1 fold and 1.0 fold and 1.3 fold | – | – | – | – | –
